Test system: rabbit saphenous vein
Experiment: rabbit saphenous vein contraction
Protocol: Representative compounds of the present invention were tested in a rabbit saphenous vein contraction assay to measure their ability to mediate vasoconstriction. […] The tips of two 30-gauge stainless steel hypodermic needles bent into an L-shape were slipped into the polyetylene tubing. Vessels were gently pushed from the cannula onto the needles. The needles were then separated so that the lower one was attached with thread to a stationary glass rod and the upper one was tied with thread to the transducer. […] An initial optimum resting force of 1 gm was applied to the saphenous vein. Isometric contractions were recorded as changes in grams of force on a Beckman Dynograph with Statham UC-3 transducers and microscale accessory attachments. Tissues were allowed to equilibrate 1 to 2 hours before exposure to drugs. Cumulative agonist concentration-response curves were generated in tissues and no tissue was used to generate more than two agonist concentration-response curves. […] This vasoconstriction assay measures two important parameters, saphenous vein contraction (EC50) and maximal contraction as a % maximal KCl response (%max KCl).

corrected vasoconstriction EC50 (EC50 divided by %max KCl): 10.3 nM
EC50 (Oryctolagus cuniculus): 660 nM
SMILES: CNS(=O)(=O)Cc1ccc2[nH]cc(CCN(C)C)c2c1 [sumatriptan]
